Measurements: patent publication US20260355199A1, “COMPOSITIONS AND METHODS FOR TREATING OR PREVENTING NONALCOHOLIC STEATOHEPATITIS (NASH), ANOREXIA, DEPRESSION, ENDOMETRIOSIS, AND OTHER DISEASES OR DISORDERS” (priority 2022, published 2026)

Assays:
murine model of NASH = assay: High fat high sugar diet-induced murine model of NASH; assay type: in vivo, mouse; conditions: for fasting glucose / glucose tolerance: week 12; for plasma AST: week 13
Protocol: As TET3-positive macrophages were also detected in human NASH (FIG. 24B), studies were performed to investigate whether depleting these macrophages would reduce NASH progression. Despite the high efficiency (up to 90%) of the LysM-cre strain in manipulating macrophages originated from myeloid progenitors including those in the peritoneal cavity, peripheral blood and bone marrow, only ~40% of tissue resident macrophages derived from yolk sac (e.g., those in the liver and the spleen red pulp) were affected (Shi et al., 2018, Methods Mol Biol, 1784:263-275). While the inefficacy of the LysM-cre strain in depleting tissue resident macrophages has precluded using the Mye-Tet3 ko mice, potential effects of Bobcat339 in steatosis, inflammation, and fibrosis were assessed using a high fat high sugar diet-induced murine model of NASH (Ishimoto et al., 2013, Hepatology, 58:1632-1643; Kroh et al., 2020, Gastroenterol Res Pract, 7347068; Baiges-Gaya et al., 2021, J Nutr Biochem, 89:108559). As shown schematically in FIG. 29A, mice were placed on a standard chow diet (CD) (control group) or a western diet with 10% sucrose in drinking water (WD) for 8 weeks to induce an early NASH phenotype (Kroh et al., 2020, Gastroenterol Res Pract, 7347068). Then, these mice were therapeutically dosed intravenously once a week from week 8 through week 11 with either 2.5 mg/kg Bobcat339 (treatment group) or vehicle (model group) for a total of 13 weeks on diets. Mice were euthanized following a 12 h overnight fasting, and plasma and liver were harvested for analyses.
Then, these mice were therapeutically dosed intravenously once a week from week 8 through week 11 with either 3 mg/kg Bobcat339 (treatment group) or vehicle (model group) for a total of 13 weeks on diets. At the end of the study, mice were euthanized following a 12 h overnight fasting, and plasma and liver were harvested for analyses.
Male C57BL/6J mice of 6-weeks old were randomly divided into three groups, with each containing 5 animals. The control group were fed a standard chow diet (CD). The model group and the treatment group were fed a western diet (WD) (40 kcal % fat, 20 kcal % fructose, and 2 kcal % cholesterol, Research Diets, D09100301) supplemented with 10% sucrose in drinking water provided ad libitum. In the treatment group, Bobcat339 administration was initiated following 8 weeks of WD by tail vein injection at 2.5 mg/kg body weight once a week for 4 weeks. The control group and the model group received vehicle (DMSO) tail vein injections. […] After a total of 13 weeks on diets, mice were sacrificed following a 12 h overnight fasting, and plasma and liver were harvested for analyses.
GTT were performed following 16 h overnight fasting. Each animal received an i.p. injection of 2 g/kg of glucose (Sigma-Aldrich, G5767) in sterile saline. Blood glucose concentrations were measured using Contour next blood glucose meter (Ascensia Diabetes Care) via tail vein bleeding at the indicated time points after injection.
These were assessed using Triglyceride Content Assay Kit (Solarbio, BC0625) and Hydroxyproline Assay Kit (Sigma-Aldrich, MAK008-1KT), respectively.
Mouse liver samples were collected and fixed at 4 °C with 4% of phosphate buffered paraformaldehyde for 24 h. Fixed tissue specimens were embedded in paraffin and cut into […] tissue sections for histopathological analysis. Tissue sections were stained with Hematoxylin-Eosin according to standard protocols. For Sirius Red/Fast Green staining, slides were deparaffinized by heating at 65 °C for 60 min, followed by xylene wash 3 times 5 min each. The slides were then rehydrated in 100%, 90%, 80% and 70% ethanol for 5 min each, followed by ddH2O wash 2 times 5 min each. Then they were incubated in 0.04% Fast Green (Sigma-Aldrich, F7258) in saturated [COMPOUND LEFT OUT] for 15 min, washed with distilled water and then incubated in 0.1% Fast Green and 0.08% Sirius Red (Sigma-Aldrich, 365546) in saturated [COMPOUND LEFT OUT] for 30 min. […]

TET3 = TET3 protein stability (cycloheximide) in RAW 264.7 cells; assay type: cell-based, mouse; conditions: 10 μM, with cycloheximide
Protocol: For TET3 protein stability assay, cells in 24-well plates were incubated with vehicle or Bobcat339 at a final concentration of 10 μM for 3 hours, followed by addition of cycloheximide (CHX, Cell Signaling, 2112) at a final concentration of 50 μg/mL in the presence of 10 μM of Bobcat339. Proteins were harvested at 0, 1, 2, and 3 hours after addition of CHX.

In the case of `Nc1nc(=O)n(-c2cccc(-c3ccccc3)c2)cc1Cl` [Bobcat339, 4-Amino-1-[1,1′-biphenyl]-3-yl-5-chloro-2(1H)-pyrimidinone], the NAS score (murine model of NASH; 2.5 mg/kg i.v. once a week) is reported as “reduced NAS scores”, the “TET3-expressing macrophages in liver” value (murine model of NASH; 2.5 mg/kg i.v. once a week) is reported as “depleted after Bobcat339 treatment” and the fibrosis stage (murine model of NASH; 2.5 mg/kg i.v. once a week) is reported as “a significant reduction in both the fibrosis stage and the hydroxyproline content”. The “histological severity of steatosis and fibrosis” value (murine model of NASH; 2.5 mg/kg i.v. once a week) was “significantly reduced the severity of both steatosis and fibrosis”, the liver hydroxyproline content (murine model of NASH; 2.5 mg/kg i.v. once a week) was “a significant reduction in both the fibrosis stage and the hydroxyproline content” and the liver triglycerides (murine model of NASH; 2.5 mg/kg i.v. once a week) was “normalized liver triglycerides”. For the same molecule, the liver-to-body weight ratio (murine model of NASH; 2.5 mg/kg i.v. once a week) was “decreased liver-to-body weight ratio”, the fasting glucose (murine model of NASH; 2.5 mg/kg i.v. once a week) was “a significant improvement” and the glucose tolerance (murine model of NASH; 2.5 mg/kg i.v. once a week) was “a significant improvement”. For the same molecule, the “plasma AST” value (murine model of NASH; 2.5 mg/kg i.v. once a week) was “normalized this marker”, the “IL-1b and IL-6 in CD163+ macrophage-enriched areas of liver” value (murine model of NASH; 3 mg/kg i.v. once a week) was “reduced the expression of IL-1b and IL-6” and the NAS score (murine model of NASH; 3 mg/kg i.v. once a week) was “reduced NAS scores”. The “TET3-overexpressing CD163+ macrophages in liver” value (murine model of NASH; 3 mg/kg i.v. once a week) was “significantly reduced after Bobcat339 treatment”, the fibrosis stage (murine model of NASH; 3 mg/kg i.v. once a week) was “a significant reduction in both the fibrosis stage and hydroxyproline content” and the “histological severity of steatosis and fibrosis” value (murine model of NASH; 3 mg/kg i.v. once a week) was “significantly reduced the severity of both steatosis and fibrosis”. The hydroxyproline content (murine model of NASH; 3 mg/kg i.v. once a week) was “a significant reduction in both the fibrosis stage and hydroxyproline content”, the liver triglycerides (murine model of NASH; 3 mg/kg i.v. once a week) was “normalized liver triglycerides” and the liver-to-body weight ratio (murine model of NASH; 3 mg/kg i.v. once a week) was “decreased liver-to-body weight ratio”. For the same molecule, the fasting glucose (murine model of NASH; 3 mg/kg i.v. once a week) was “a significant improvement”, the glucose tolerance (murine model of NASH; 3 mg/kg i.v. once a week) was “a significant improvement” and the “plasma AST” value (murine model of NASH; 3 mg/kg i.v. once a week) was “normalized this marker”. For the same molecule, the TET3 protein stability (TET3) was “less stable”, the “half-life of TET3” value (TET3; RAW) was ~ 80 minutes and the “half-life of TET3” value (TET3; macrophages) was ~ 80 min.
